A short description of data set [1]: logP by HPLC on reversed-phase column (EEC Directive 79/831 Annex V.A8). It is filed as physicochemical. To be noted: HPLC on reversed-phase column (C 18), 40° C., 0.1% aqueous formic acid and acetonitrile, linear gradient 10% to 90% acetonitrile. Summed up: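 Reversed-phase C18 HPLC at 40° C with 0.1% aqueous formic acid/acetonitrile, linear gradient 10% to 90% acetonitrile. LogP obtained from retention time by linear interpolation between successive unbranched alkan-2-ones (3 to 16 carbons) of known logP. Lambda-max taken from UV spectra at 200-400 nm at chromatographic peak maxima.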

Data set [2] has as its system Alternaria solani. Briefly: in vivo preventive test on Alternaria solani (tomato). To be noted: 500 ppm of active ingredient, evaluated 7 days after inoculation. How it is done:
Solvent: 49 parts by weight of N,N-dimethylformamide Emulsifier: 1 part by weight of Alkylarylpolyglycolether To produce a suitable preparation of active compound, 1 part by weight of active compound is mixed with the stated amounts of solvent and emulsifier, and the concentrate is diluted with water to the desired concentration. To test for preventive activity, young plants are sprayed with the preparation of active compound at the stated rate of application. One day after this treatment, the plants are inoculated with an aqueous spore suspension of Alternaria solani. The plants remain for one day in an incubation cabinet at approximately 22° C. and a relative atmospheric humidity of 100%. Then the plants are placed in an incubation cabinet at approximately 20° C. and a relative atmospheric humidity of 96%. The test is evaluated 7 days after the inoculation. 0% means an efficacy which corresponds to that of the untreated control while an efficacy of 100% means that no disease is observed.

Data set [3] concerns Pyrenophora teres. Briefly: in vivo preventive test on Pyrenophora teres (barley). To be noted: 500 ppm of active ingredient, evaluated 7-9 days after inoculation. How it is done:
(§1) Solvent: 49 parts by weight of N,N-dimethylformamide Emulsifier: 1 part by weight of alkylaryl polyglycol ether To produce a suitable preparation of active compound, 1 part by weight of active compound is mixed with the stated amounts of solvent and emulsifier, and the concentrate is diluted with water to the desired concentration. To test for preventive activity, young plants are sprayed with the preparation of active compound at the stated rate of application. One day after this treatment, the plants are inoculated with an aqueous spore suspension of Pyrenophora teres. The plants remain for 48 hours in an incubation cabinet at 22° C. and a relative atmospheric humidity of 100%. Then the plants are placed in a greenhouse at a temperature of approximately 20° C. and a relative atmospheric humidity of approximately 80%. The test is evaluated 7-9 days after the inoculation. 0% means an efficacy which corresponds to that of the untreated control while an efficacy of 100% means that no disease is observed.

Data set [4] deals with Leptosphaeria nodorum. Briefly: in vivo preventive test on Leptosphaeria nodorum (wheat). To be noted: 500 ppm of active ingredient, evaluated 7-9 days after inoculation. The method, then: as §1, with “weight of N,N-dimethylacetamide Emulsifier: 1” for “weight of N,N-dimethylformamide Emulsifier: 1”, “sprayed with a preparation of” for “sprayed with the preparation of”, “suspension of Leptosphaeria nodorum. The plants” for “suspension of Pyrenophora teres. The plants”, “of approximately 22° C. and” for “of approximately 20° C. and”, “of approximately 90%. The test” for “of approximately 80%. The test”, “the untreated control, while an” for “the untreated control while an”

The subject of data set [5] is Blumeria graminis fsp. hordei. Briefly: in vivo preventive test on Blumeria graminis (barley). To be noted: 500 ppm of active ingredient, evaluated 7 days after inoculation. The method, then:
Solvent: 49 parts by weight of N,N-dimethylacetamide Emulsifier: 1 part by weight of alkylaryl polyglycol ether To produce a suitable preparation of active compound, 1 part by weight of active compound or active compound combination is mixed with the stated amounts of solvent and emulsifier, and the concentrate is diluted with water to the desired concentration. To test for preventive activity, young plants are sprayed with the preparation of active compound or active compound combination at the stated rate of application. After the spray coating has been dried, the plants are dusted with spores of Blumeria graminis fsp. hordei. The plants are placed in the greenhouse at a temperature of approximately 18° C. and a relative atmospheric humidity of approximately 80% to promote the development of mildew pustules. The test is evaluated 7 days after the inoculation. 0% means an efficacy which corresponds to that of the untreated control, while an efficacy of 100% means that no disease is observed.

Data set [6] deals with Septoria tritici. In words: in vivo preventive test on Septoria tritici (wheat). To be noted: 500 ppm of active ingredient, evaluated 21 days after inoculation. How it is done: (§2) Solvent: 49 parts by weight of N,N-dimethylacetamide Emulsifier: 1 part by weight of alkylaryl polyglycol ether To produce a suitable preparation of active compound, 1 part by weight of active compound or active compound combination is mixed with the stated amounts of solvent and emulsifier, and the concentrate is diluted with water to the desired concentration. To test for preventive activity, young plants are sprayed with the preparation of active compound or active compound combination at the stated rate of application. After the spray coating has been dried, the plants are sprayed with a spore suspension of Septoria tritici. The plants remain for 48 hours in an incubation cabinet at approximately 20° C. and a relative atmospheric humidity of approximately 100% and afterwards for 60 hours at approximately 15° C. in a translucent incubation cabinet at a relative atmospheric humidity of approximately 100%. The plants are placed in the greenhouse at a temperature of approximately 15° C. and a relative atmospheric humidity of approximately 80%. The test is evaluated 21 days after the inoculation. 0% means an efficacy which corresponds to that of the untreated control, while an efficacy of 100% means that no disease is observed.

In data set [7] the test system is Fusarium nivale (var. majus). Briefly: in vivo curative test on Fusarium nivale (wheat). To be noted: 500 ppm of active ingredient, evaluated 5 days after inoculation. The method, then: Solvent: 49 parts by weight of N,N-dimethylacetamide Emulsifier: 1 part by weight of alkylaryl polyglycol ether To produce a suitable preparation of active compound, 1 part by weight of active compound or active compound combination is mixed with the stated amounts of solvent and emulsifier, and the concentrate is diluted with water to the desired concentration. To test for curative activity, young plants are slightly injured by using a sandblast and afterwards they are sprayed with a conidia suspension of Fusarium nivale (var. majus) and placed for 24 hours in a greenhouse under a translucent incubation cabinet at a temperature of approximately 10° C. and a relative atmospheric humidity of approximately 100% and are subsequently sprayed with the preparation of active compound at the stated rate of application. After the spray coating has been dried, the plants remain in the greenhouse under translucent incubation cloches at a temperature of approximately 10° C. and a relative atmospheric humidity of approximately 100%. The test is evaluated 5 days after the inoculation. 0% means an efficacy which corresponds to that of the untreated control, while an efficacy of 100% means that no disease is observed.

Data set [8] deals with Puccinia triticina. In words: in vivo protective test on Puccinia triticina (wheat). To be noted: 500 ppm of active ingredient, preventive, evaluated 8 days after inoculation. The method, then:
as §2, with “Puccinia triticina.” for “Septoria tritici.”, “approximately” for “approximately 100% and afterwards for 60 hours at approximately 15° C. in a translucent incubation cabinet at a relative atmospheric humidity of approximately”, “20°” for “15°”, “8” for “21”

The subject of data set [9] is Sphaerotheca fuliginea. Briefly: in vivo preventive test on Sphaerotheca fuliginea (cucumber). To be noted: 500 ppm of active ingredient, evaluated 7 days after inoculation. How it is done:
Solvent: 49 parts by weight of N,N-dimethylformamide Emulsifier: 1 part by weight of Alkylarylpolyglycolether To produce a suitable preparation of active compound, 1 part by weight of active compound is mixed with the stated amounts of solvent and emulsifier, and the concentrate is diluted with water to the desired concentration. To test for preventive activity, young plants are sprayed with the preparation of active compound at the stated rate of application. One day after this treatment, the plants are inoculated with an aqueous spore suspension of Sphaerotheca fuliginea. Then the plants are placed in a greenhouse at approximately 23° C. and a relative atmospheric humidity of approximately 70%. The test is evaluated 7 days after the inoculation. 0% means an efficacy which corresponds to that of the untreated control, while an efficacy of 100% means that no disease is observed.

As usually defined, the logP is the decadic logarithm of the partition coefficient of the neutral form, usually between octanol and water. `Cn1nc(C(F)F)c(C(=O)N(Cc2csc3ccccc23)C2CC2)c1F` [Example 90] gave a logP in data set [1] of 3.27. For the same compound, the Efficacy amounted to 95% in data set [2]; 100% in [3]; 100% in data set [4]; 100% in data set [5]; 100% in [6]; 100% in [7]. The Efficacy in data set [8] was 88%.
`Cn1nc(C(F)F)c(C(=O)N(Cc2cc3ccccc3n2-c2ccccc2)C2CC2)c1F` [Example 155]: in [1], the logP is given as 3.96. Also, the Efficacy in [2] turned out to be 95%; in data set [3], 100%; in data set [4] it was 80%; in data set [5], 70%; in [6], 100%; in data set [7], 100%. The Efficacy in data set [8] was found to be 75%.
Take `Cc1ccsc1CN(C(=O)c1c(C(F)F)nn(C)c1F)C1CC1` [Example 40]: the log partition coefficient (logP) in data set [1] amounted to 2.88. Moreover, the Efficacy in data set [2] was determined as 95%; in data set [3], 100%; in [9] it was 90%; in data set [5], 100%; in [6] it was 100%; in data set [7], 92%. The Efficacy in [8] is 71%.
Take `CC(c1cccnc1Cl)N(C(=O)c1c(C(F)F)nn(C)c1F)C1CC1` (centres unmarked) [Example 50]: the lipophilicity (logP) in [1] is 2.23. For the same compound, the Efficacy in data set [2] is 95%; in data set [3], 100%; in data set [4], 71%; in data set [9] it was 100%; in data set [5], 89%; in [6], 71%.
Compound `Cc1cc(C(C)N(C(=O)c2c(C(F)F)nn(C)c2F)C2CC2)c(C)s1` (centres unmarked) [Example 48] yielded a logP in data set [1] of 3.62. The Efficacy stood at 95% in [2]; 100% in data set [3]; 100% in data set [4]; 100% in [5]; 100% in [6]; 86% in data set [7].
With `Cc1c(CN(C(=O)c2c(C(F)F)nn(C)c2F)C2CC2)sc2ccccc12` [Example 122], in data set [1], the log partition coefficient (logP) is recorded as 3.64. The Efficacy in [2] came out at 95%; in [3] it was 100%; in data set [4] it was 100%; in data set [6], 100%; in data set [7] it was 93%; in data set [8] it was 100%.
`Cn1nc(C(F)F)c(C(=O)N(Cc2c(Cl)cncc2Cl)C2CC2)c1F` [Example 115] gave a logP in data set [1] of 2.54. Besides, the Efficacy in [2] is recorded as 100%; in data set [3] it was 100%; in data set [4], 80%; in data set [9], 83%; in data set [6] it was 86%; in data set [7], 71%.
For the compound `Cn1nc(C(F)F)c(C(=O)N(Cc2cc3ccccc3o2)C2CC2)c1F` [Example 71], the logP in data set [1] is on record as 3.11. Moreover, the Efficacy worked out at 100% in data set [3]; 80% in data set [4]; 89% in data set [5]; 100% in data set [6]; 100% in data set [7].
With `Cn1nc(C(F)F)c(C(=O)N(Cc2csc3ccc(Cl)cc23)C2CC2)c1F` [Example 143], the logP in data set [1] was 3.73. Besides, the Efficacy in [2] worked out at 95%; in data set [3] it was 100%; in [9] it was 95%; in data set [5], 94%; in data set [6], 100%.
On to `Cn1nc(C(F)F)c(C(=O)N(Cc2cccc3ccsc23)C2CC2)c1F` [Example 93], for which, in [1], the logP is on record as 3.19. For the same compound, the Efficacy in data set [2] came to 100%; in [3], 100%; in [5], 94%; in data set [6], 100%; in data set [7], 71%; in data set [8], 100%.
